Measurements from patent US4599351A (priority 1984, dated 1986).
Converted amounts (≈) assume the structure as drawn. “And” between values parts separate entries of the source, which are not always exact repeats. Equal entries are not always repeated.

Key:
Phytophthora infestans = test: whole plant or invertebrate; assay type: in vivo
[1] = test system: Pythium vexans Sensitive (Naturally Occurring); test: Fungitoxicity in V-8 juice agar, sensitive Pythium vexans (Example 7); assay type: cell-based; details: for IC50: Phytopythium vexans, V-8 juice agar, read-out: ED50, Pythium vexans Sensitive (Naturally Occurring)
Plasmopara viticola [2] = test: Eradicant Grape Downy Mildew control (Example 4); assay type: in vivo
Description: Compounds of the invention were tested for the eradicant control of the Grape Downy Mildew organism Plasmopara viticola. Detached leaves of between 70 and 80 mm diameter of 7-week-old Vitis vinifera cultivar Emperor grape seedlings were used as hosts. The leaves were inoculated with the organism and placed in an environment chamber and incubated at 18° C.-22° C. and at about 100% relative humidity for 1 to 2 days. The leaves were then sprayed with a solution of the test compound in acetone, water and a small amount of a nonionic emulsifier. The sprayed leaves were then maintained at 18° C.-22° C. and at about 100% relative humidity. Seven to nine days after inoculation, the amount of disease control was determined. The percent disease control provided by the compound of Example 1 was based on the percent disease reduction relative to nontreated check plants.

Plasmopara viticola [3] = test: whole plant or invertebrate; assay type: in vivo
Pythium vexans Resistant = test: microbe, parasite or virus in culture; assay type: cell-based; details: for ED50 Ratio R/S, Pythium vexans: ED50-resistant to ED50-sensitive; for IC50: Phytopythium vexans, read-out: ED50, Pythium vexans Resistant; for ED50 against resistant fungi (in words): resistant mutant strains of Pythium ultimum or Pythium vexans, agar studies
[4] = test system: Pythium ultimum Sensitive (Naturally Occurring); test: Fungitoxicity in V-8 juice agar, sensitive Pythium ultimum (Example 7); assay type: cell-based; details: for IC50: Globisporangium ultimum, V-8 juice agar, read-out: ED50, Pythium ultimum Sensitive (Naturally Occurring)
[5] = test system: Pythium ultimum Resistant; test: microbe, parasite or virus in culture; assay type: cell-based; details: for ED50 Ratio R/S, Pythium ultimum: ED50-resistant to ED50-sensitive; for IC50: Globisporangium ultimum, read-out: ED50, Pythium ultimum Resistant
[6] = Phytophthora infestans, in Solanum lycopersicum, read-out: Fungicidal Efficacy, TLB (percent disease control)
[7] = Table II Test 5, 6.4 ppm, infection in check plants 60%
[8] = Table II Test 5, 16 ppm, infection in check plants 60%
[9] = Table II Test 5, 40 ppm, infection in check plants 60%
[10] = Plasmopara viticola, in Vitis vinifera, read-out: Fungicidal Efficacy, GDM (percent disease control)
[11] = Table II Test 4, 16 ppm, infection in check plants 63%
[12] = Table II Test 4, 40 ppm, infection in check plants 63%
[13] = Table II Test 4, 100 ppm, infection in check plants 63%
[14] = Table II Test 4, 250 ppm, infection in check plants 63%

Row | Compound | pest or weed control at 250 ppm (Phytophthora infestans; [6]) [%] | IC50 [1] [µg/mL] | pest or weed control at 250 ppm (Plasmopara viticola [3]; [10]) [%] | ED50 Ratio R/S, Pythium vexans (Pythium vexans Resistant) | IC50 (Pythium vexans Resistant) [µg/mL] | IC50 [4] [µg/mL] | ED50 Ratio R/S, Pythium ultimum [5] | IC50 [5] [µg/mL] | also measured
1 | CCCCC(=O)N(c1c(C)cccc1C)C1CCOC1=O (stereo not shown) [3-(N-valeryl-N-2,6-dimethylphenylamino)-gamma-butyrolactone] | 96 | 0.1 (≈ 0.346 µM) | 100 | 400 | 40 (≈ 138 µM) | – | – | – | Percent Control of TLB (Phytophthora infestans; [7]): 8%; Percent Control of TLB (Phytophthora infestans; [8]): 28%; Percent Control of TLB (Phytophthora infestans; [9]): 42%; percent disease control (eradicant) (Plasmopara viticola [2]; 40 ppm): 92%; percent disease control (eradicant) (Plasmopara viticola [2]; 100 ppm): 100%; Percent Control of GDM (Plasmopara viticola [3]; in vivo): 100% and 60% and 54%; fungicidal activity toward Grape Downy Mildew (in words) (Plasmopara viticola [3]; in vivo): unexpectedly high fungicidal activity toward Grape Downy Mildew; ED50 against resistant fungi (in words) (Pythium vexans Resistant): substantially better ED50's against resistant fungi than the compounds where R^1 has less than 3 carbon atoms
2 | CCCCCC(=O)N(c1c(C)cccc1C)C1CCOC1=O (stereo not shown) [(CH2)4 CH3] | 91 | 0.56 (≈ 1.85 µM) | 100 | 29 | 16 (≈ 52.7 µM) | – | – | – | Percent Control of TLB (Phytophthora infestans; [7]): 7%; Percent Control of TLB (Phytophthora infestans; [8]): 3%; Percent Control of TLB (Phytophthora infestans; [9]): 37%; base ED50 relative to Grape Downy Mildew producing fungi (natural), versus R^1 is propyl or butyl compounds (Plasmopara viticola [3]; in vivo): four to ten times higher than the R^1 is propyl or butyl compounds; ED50 R/S ratio (in words) (Pythium vexans Resistant; Table III): excellent; effect of acquired Control resistance on fungitoxicity (in words) (Pythium vexans Resistant; Table III, resistant mutants of Pythium ultimum and/or Pythium vexans): substantially less affected by the acquired Control resistance than any of the compounds in Table III; ED50 against resistant fungi (in words) (Pythium vexans Resistant): excellent
3 | CCC(=O)N(c1c(C)cccc1C)C1CCOC1=O (stereo not shown) [C2 H5] | 23 | > 1 | – | < 140 | 140 (≈ 536 µM) | 0.26 (≈ 0.995 µM) | 808 | 210 (≈ 804 µM) | ED50 relative to the R^1 is propyl compound, P. ultimum (sensitive) ([4]; comparison in words): more than ten times; Percent Control of TLB (Phytophthora infestans; [11]): 0%; Percent Control of TLB (Phytophthora infestans; [12]): 0%; Percent Control of TLB (Phytophthora infestans; [13]): 54%; Percent Control of TLB (Phytophthora infestans; [14]): 80%; ED50 relative to the R^1 is butyl compound, P. vexans (sensitive) ([1]; comparison in words): more than ten times; ED50 relative to the R^1 is propyl compound, P. vexans (sensitive) ([1]; comparison in words): more than two times; ED50 relative to the R^1 is propyl compound, P. ultimum (resistant) ([5]; comparison in words): more than twice the ED50 for the R^1 is propyl compound; ED50 R/S ratio (in words) (Pythium vexans Resistant; Table III): very good; ED50 relative to the R^1 is butyl compound, P. vexans (resistant) (Pythium vexans Resistant; comparison in words): more than three times that of the R^1 is butyl compound; ED50 relative to the R^1 is propyl compound, P. vexans (resistant) (Pythium vexans Resistant; comparison in words): more than three times that of the R^1 is propyl compound
4 | Cc1cccc(C)c1N(C(=O)C(C)(C)C)C1CCOC1=O (stereo not shown) [C(CH3)3] | 0 | – | – | – | – | – | – | – | –
5 | CCCC(=S)N(c1c(C)cccc1C)C1CCOC1=O (stereo not shown) [CH2 CH2 CH3, Y = O, Z = S] | 96 | – | 100 | – | – | – | – | – | –
6 | CCCC(=O)N(c1c(C)cccc1C)C1CCSC1=O (stereo not shown) [CH2 CH2 CH3, Y = S, Z = O, 3-(N-butyryl-2,6-dimethylanilino)-butyrothiolactone] | 35 | – | 99 | – | – | – | – | – | –
7 | Cc1cccc(C)c1N(C(=O)CC(C)C)C1CCOC1=O (stereo not shown) [CH2 CH(CH3)2] | 0 | – | 96 | – | – | – | – | – | –
8 | Cc1cccc(C)c1N(C(=O)CCl)C1CCOC1=O (stereo not shown) [CH2 Cl, reference compound] | – | 0.19 (≈ 0.674 µM) | – | 763 | 145 (≈ 515 µM) | 0.005 (≈ 0.0177 µM) | 24,000 | 120 (≈ 426 µM) | –
9 | COCC(=O)N(c1c(C)cccc1C)C1CCOC1=O (stereo not shown) [CH2 OCH3, reference compound] | – | 0.15 (≈ 0.541 µM) | – | – | 400 (≈ 1440 µM) | 0.005 (≈ 0.018 µM) | 160,000 | 800 (≈ 2880 µM) | –
10 | CC(=O)N(c1c(C)cccc1C)C1CCOC1=O (stereo not shown) [CH3] | – | – | – | – | – | – | – | – | pest or weed control at 100 ppm (Phytophthora infestans; [6]): 79%; pest or weed control at 100 ppm (Plasmopara viticola [3]; [10]): 42%
11 | Cc1cccc(C)c1N(C(=O)C(C)C)C1CCOC1=O (stereo not shown) [CH(CH3)2] | 23 | – | 0 | – | – | – | – | – | –
12 | COCC(=O)N(c1c(C)cccc1C)C(C)C(=O)OC (stereo not shown) [CONTROL, N-methoxyacetyl-N-(1-methoxycarbonylethyl)-2,6-dimethylaniline, reference compound] | – | 0.075 (≈ 0.268 µM) | – | 8,467 | 635 (≈ 2270 µM) | 0.036 (≈ 0.129 µM) | 26,000 | 940 (≈ 3370 µM) | –
13 | CCCC(=O)N(c1c(C)cccc1C)C1CCOC1=O (stereo not shown) [Example 1, 3-(N-butyryl-N-2,6-dimethylphenylamino)-gamma-butyrolactone] | 99 | 0.43 (≈ 1.56 µM) | 100 | 100 | 43 (≈ 156 µM) | 0.02 (≈ 0.0726 µM) | 4,750 | 95 (≈ 345 µM) | Percent Control of TLB (Phytophthora infestans; [11]): 0%; Percent Control of TLB (Phytophthora infestans; [12]): 48%; Percent Control of TLB (Phytophthora infestans; [13]): 76%; Percent Control of TLB (Phytophthora infestans; [14]): 94%; percent disease control (eradicant) (Plasmopara viticola [2]; 40 ppm): 100%; percent disease control (eradicant) (Plasmopara viticola [2]; 100 ppm): 100%; percent disease control (eradicant) (Plasmopara viticola [2]; 250 ppm): 100%; fungicidal activity toward Grape Downy Mildew (in words) (Plasmopara viticola [3]; in vivo): unexpectedly high fungicidal activity toward Grape Downy Mildew; ED50 against resistant fungi (in words) (Pythium vexans Resistant): substantially better ED50's against resistant fungi than the compounds where R^1 has less than 3 carbon atoms
